Assays:
Type in all cases: biochemical
PDGFRB = molecular target: T1, PDGFRB (Homo sapiens, UniProt P09619); experiment: Kinase inhibition assay (33P transfer), PDGFRB; details: read-out: PDGFRB-1
T1 construct: Kinases are expressed as either kinase domains or full length constructs; made in house

Src = molecular target: T2, Src (Homo sapiens, UniProt P12931); experiment: Kinase inhibition assay (33P transfer), Src; details: Table 6, Src-1 kinase inhibition class
T2 construct: Kinases are expressed as either kinase domains or full length constructs; made in house
Source text: (§1) The inhibitor compounds described herein are screened in the following manner. Kinases suitable for use in the following protocol to determine kinase activity of the compounds described herein include, -but are not limited to: Lck, Lyn, Src, Fyn, Syk, Zap-70, Itk, Tec, Btk, EGFR, ErbB2, Kdr, Flt-1, Flt-3, Tek, c-Met, InsR, and AKT.
(§2) Kinases are expressed as either kinase domains or full length constructs fused to glutathione S-transferase (GST) or polyHistidine tagged fusion proteins in either E. colior Baculovirus-High Five expression systems. They are purified to near homogeneity by affinity chromatography essentially as previously described (Lehr et al., 1996; Gish et al., 1995). In some instances, kinases are co-expressed or mixed with purified or partially purified regulatory polypeptides prior to measurement of activity.
(§3) Kinase activity and inhibition are measured essentially by established protocols (Braunwalder et al., 1996). Briefly, The transfer of ^33PO4 from ATP to the synthetic substrates poly(Glu, Tyr) 4:1 or poly(Arg, Ser) 3:1 attached to the bioactive surface of microtiter plates serves as the basis to evaluate enzyme activity. After an incubation period, the amount of phosphate transferred is measured by first washing the plate with 0.5% phosphoric acid, adding liquid scintillant, and then counting in a liquid scintillation detector. The IC50 is determined by the concentration of compound that causes a 50% reduction in the amount of […] incorporated onto the substrate bound to the plate.

Tek = molecular target: T3, Tek (Homo sapiens, UniProt Q02763); experiment: Kinase inhibition assay (33P transfer), Tek; details: read-out: Tek-1
T3 construct: Kinases are expressed as either kinase domains or full length constructs; made in house
Outline: (§4)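 Radiometric format: recombinant tagged kinase (catalytic domain or whole protein, sometimes combined with regulatory polypeptides) phosphorylates immobilised poly(Glu,Tyr) 4:1 or poly(Arg,Ser) 3:1 using [33P]ATP. Wells are washed in 0.5% phosphoric acid, then counted. IC50 is taken where substrate labelling falls by half.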

AKT = molecular target: T4, AKT (Homo sapiens, UniProt Q9Y243); experiment: Kinase inhibition assay (33P transfer), AKT; details: Table 2, kinase inhibition class; read-out: AKT3-1
T4 construct: Kinases are expressed as either kinase domains or full length constructs; made in house
T4 sequence (Q9Y243 whole entry, the tested form may be a part): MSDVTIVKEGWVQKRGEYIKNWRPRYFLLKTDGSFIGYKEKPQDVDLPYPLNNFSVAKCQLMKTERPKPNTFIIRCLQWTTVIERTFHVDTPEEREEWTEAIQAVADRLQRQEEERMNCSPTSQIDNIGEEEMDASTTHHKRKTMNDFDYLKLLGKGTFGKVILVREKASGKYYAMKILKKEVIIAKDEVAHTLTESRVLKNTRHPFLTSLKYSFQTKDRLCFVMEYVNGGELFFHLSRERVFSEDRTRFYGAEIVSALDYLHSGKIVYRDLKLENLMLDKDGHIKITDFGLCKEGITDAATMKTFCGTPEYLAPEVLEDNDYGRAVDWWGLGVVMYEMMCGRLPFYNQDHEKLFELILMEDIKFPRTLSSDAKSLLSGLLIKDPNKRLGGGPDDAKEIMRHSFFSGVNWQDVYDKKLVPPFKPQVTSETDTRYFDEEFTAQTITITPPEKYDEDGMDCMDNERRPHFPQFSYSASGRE
Outline: (§5)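 Recombinant kinase-domain or full-length fusion proteins (GST or His tag) served as enzyme. Substrate poly(Glu,Tyr) 4:1 or poly(Arg,Ser) 3:1 was bound to the plate; transferred 33P was read by liquid scintillation following acid washing.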

ErbB4 = molecular target: T5, ErbB4 (Homo sapiens, UniProt Q15303); experiment: Kinase inhibition assay (33P transfer), ErbB4; details: read-out: ErbB4-1
T5 construct: Kinases are expressed as either kinase domains or full length constructs; made in house

c-Met = molecular target: T6, c-Met (Homo sapiens, UniProt P08581); experiment: Kinase inhibition assay (33P transfer), c-Met; details: Table 2, kinase inhibition class; read-out: Met-1
T6 construct: Kinases are expressed as either kinase domains or full length constructs; made in house
T6 sequence (P08581 25-1390): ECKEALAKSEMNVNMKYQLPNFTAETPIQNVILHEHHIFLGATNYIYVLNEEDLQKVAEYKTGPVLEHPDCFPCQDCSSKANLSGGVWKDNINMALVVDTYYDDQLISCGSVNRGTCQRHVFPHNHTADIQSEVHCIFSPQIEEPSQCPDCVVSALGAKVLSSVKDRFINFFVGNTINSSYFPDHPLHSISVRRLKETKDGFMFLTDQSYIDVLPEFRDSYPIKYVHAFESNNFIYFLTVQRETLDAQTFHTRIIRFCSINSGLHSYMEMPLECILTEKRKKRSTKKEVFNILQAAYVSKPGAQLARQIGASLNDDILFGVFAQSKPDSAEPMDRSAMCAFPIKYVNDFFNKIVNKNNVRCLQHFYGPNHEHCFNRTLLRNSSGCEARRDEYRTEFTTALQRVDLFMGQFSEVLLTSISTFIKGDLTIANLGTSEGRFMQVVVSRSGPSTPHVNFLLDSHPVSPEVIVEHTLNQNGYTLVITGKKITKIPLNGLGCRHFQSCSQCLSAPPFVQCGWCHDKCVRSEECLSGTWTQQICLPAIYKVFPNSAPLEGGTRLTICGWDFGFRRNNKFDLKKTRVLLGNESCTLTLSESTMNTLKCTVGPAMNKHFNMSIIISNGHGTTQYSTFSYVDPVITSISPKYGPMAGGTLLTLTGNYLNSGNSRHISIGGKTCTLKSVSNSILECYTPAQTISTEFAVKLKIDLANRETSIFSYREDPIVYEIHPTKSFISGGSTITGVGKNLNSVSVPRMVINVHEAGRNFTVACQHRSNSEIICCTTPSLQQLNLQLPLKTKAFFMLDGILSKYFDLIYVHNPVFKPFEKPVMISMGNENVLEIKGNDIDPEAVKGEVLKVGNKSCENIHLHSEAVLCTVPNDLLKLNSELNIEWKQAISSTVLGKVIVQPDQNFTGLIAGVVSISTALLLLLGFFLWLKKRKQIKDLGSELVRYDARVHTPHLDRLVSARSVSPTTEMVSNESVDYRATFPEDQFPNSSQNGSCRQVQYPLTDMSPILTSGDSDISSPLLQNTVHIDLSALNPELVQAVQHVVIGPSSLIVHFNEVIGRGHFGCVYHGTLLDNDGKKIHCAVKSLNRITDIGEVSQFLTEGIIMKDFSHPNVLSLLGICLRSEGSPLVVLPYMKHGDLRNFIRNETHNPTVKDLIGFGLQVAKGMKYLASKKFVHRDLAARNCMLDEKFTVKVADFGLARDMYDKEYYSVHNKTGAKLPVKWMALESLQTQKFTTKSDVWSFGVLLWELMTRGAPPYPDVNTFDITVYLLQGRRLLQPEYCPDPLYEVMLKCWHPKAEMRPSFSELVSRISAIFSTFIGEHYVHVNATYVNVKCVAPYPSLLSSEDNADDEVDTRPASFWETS
Outline: as §4

Hck-1 = molecular target: T7, Hck-1 (Homo sapiens, UniProt P08631); experiment: Kinase inhibition assay (33P transfer), Hck; details: Table 6, Hck-1 kinase inhibition class
T7 construct: Kinases are expressed as either kinase domains or full length constructs; made in house
T7 sequence (P08631 whole entry, the tested form may be a part): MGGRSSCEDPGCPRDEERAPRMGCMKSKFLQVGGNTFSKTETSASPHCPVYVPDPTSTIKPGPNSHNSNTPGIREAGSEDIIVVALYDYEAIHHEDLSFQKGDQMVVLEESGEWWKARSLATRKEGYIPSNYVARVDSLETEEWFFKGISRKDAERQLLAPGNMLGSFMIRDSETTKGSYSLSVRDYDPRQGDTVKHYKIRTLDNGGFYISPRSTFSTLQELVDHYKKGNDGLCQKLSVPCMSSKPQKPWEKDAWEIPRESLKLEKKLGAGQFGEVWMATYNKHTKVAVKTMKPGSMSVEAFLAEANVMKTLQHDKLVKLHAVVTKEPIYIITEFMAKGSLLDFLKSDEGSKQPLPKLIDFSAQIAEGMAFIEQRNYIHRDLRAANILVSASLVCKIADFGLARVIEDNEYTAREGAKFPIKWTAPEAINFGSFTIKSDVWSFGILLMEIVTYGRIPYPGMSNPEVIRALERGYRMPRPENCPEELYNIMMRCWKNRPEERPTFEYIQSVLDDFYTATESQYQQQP

Fyn = molecular target: T8, Fyn (Homo sapiens, UniProt P06241); experiment: Kinase inhibition assay (33P transfer), Fyn; details: read-out: Fyn-1
T8 construct: Kinases are expressed as either kinase domains or full length constructs; made in house
T8 sequence (P06241 whole entry, species assumed, the tested form may be a part): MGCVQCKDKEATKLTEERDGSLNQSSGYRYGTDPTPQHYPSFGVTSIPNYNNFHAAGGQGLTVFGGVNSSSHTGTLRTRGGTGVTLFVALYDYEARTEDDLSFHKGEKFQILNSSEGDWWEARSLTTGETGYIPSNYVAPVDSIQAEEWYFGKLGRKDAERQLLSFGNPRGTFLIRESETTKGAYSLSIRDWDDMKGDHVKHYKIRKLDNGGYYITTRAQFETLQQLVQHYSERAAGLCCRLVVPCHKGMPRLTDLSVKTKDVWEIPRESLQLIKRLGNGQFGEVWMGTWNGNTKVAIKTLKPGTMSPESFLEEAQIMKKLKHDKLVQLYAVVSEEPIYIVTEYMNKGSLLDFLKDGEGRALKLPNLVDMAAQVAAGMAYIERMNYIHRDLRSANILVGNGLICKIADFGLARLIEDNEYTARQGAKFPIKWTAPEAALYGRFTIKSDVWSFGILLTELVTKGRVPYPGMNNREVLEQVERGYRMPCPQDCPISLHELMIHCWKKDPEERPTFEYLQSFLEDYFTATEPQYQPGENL
Source text: as §1, §2, §3

Itk = molecular target: T9, Itk (Homo sapiens, UniProt Q08881); experiment: Kinase inhibition assay (33P transfer), Itk; details: Table 3; read-out: Itk-1
T9 construct: Kinases are expressed as either kinase domains or full length constructs; made in house
T9 sequence (Q08881 1-620): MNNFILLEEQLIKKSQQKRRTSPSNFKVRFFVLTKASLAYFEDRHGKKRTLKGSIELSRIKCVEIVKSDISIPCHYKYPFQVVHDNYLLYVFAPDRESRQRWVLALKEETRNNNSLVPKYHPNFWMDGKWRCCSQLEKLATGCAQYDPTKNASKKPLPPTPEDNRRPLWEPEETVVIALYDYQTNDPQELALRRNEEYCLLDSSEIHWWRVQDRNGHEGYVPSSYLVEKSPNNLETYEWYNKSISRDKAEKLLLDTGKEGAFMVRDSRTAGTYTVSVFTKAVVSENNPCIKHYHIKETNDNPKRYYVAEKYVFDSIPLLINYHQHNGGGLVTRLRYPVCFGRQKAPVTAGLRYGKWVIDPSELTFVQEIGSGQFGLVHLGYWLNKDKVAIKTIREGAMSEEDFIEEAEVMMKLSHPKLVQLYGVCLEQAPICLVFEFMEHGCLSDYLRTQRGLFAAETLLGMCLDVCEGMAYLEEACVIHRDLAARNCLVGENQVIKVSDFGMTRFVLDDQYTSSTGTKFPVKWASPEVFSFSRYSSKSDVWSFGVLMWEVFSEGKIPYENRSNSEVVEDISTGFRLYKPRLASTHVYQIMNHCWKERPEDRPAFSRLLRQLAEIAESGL
Outline: as §4

Kdr = molecular target: T10, Kdr (Homo sapiens, UniProt P35968); experiment: Kinase inhibition assay (33P transfer), Kdr; details: Table 3; read-out: KDR-1
T10 construct: Kinases are expressed as either kinase domains or full length constructs; made in house
Outline: as §5

Lyn = molecular target: T11, Lyn (Homo sapiens, UniProt P07948); experiment: Kinase inhibition assay (33P transfer), Lyn; details: Table 6, Lyn-1 kinase inhibition class
T11 construct: Kinases are expressed as either kinase domains or full length constructs; made in house
Source text: as §1, §2, §3

FGFR1 = molecular target: T12, FGFR1 (Homo sapiens, UniProt P11362); experiment: Kinase inhibition assay (33P transfer), FGFR1; details: read-out: FGFR1-1
T12 construct: Kinases are expressed as either kinase domains or full length constructs; made in house

Flt-1 = molecular target: T13, Flt-1 (Homo sapiens, UniProt P17948); experiment: Kinase inhibition assay (33P transfer), Flt-1
T13 construct: Kinases are expressed as either kinase domains or full length constructs; made in house
Source text: as §1, §2, §3

Zap-70 = molecular target: T14, Zap-70 (Homo sapiens, UniProt P43403); experiment: Kinase inhibition assay (33P transfer), Zap-70; details: Table 3; read-out: Zap-1
T14 construct: Kinases are expressed as either kinase domains or full length constructs; made in house
T14 sequence (P43403 1-619): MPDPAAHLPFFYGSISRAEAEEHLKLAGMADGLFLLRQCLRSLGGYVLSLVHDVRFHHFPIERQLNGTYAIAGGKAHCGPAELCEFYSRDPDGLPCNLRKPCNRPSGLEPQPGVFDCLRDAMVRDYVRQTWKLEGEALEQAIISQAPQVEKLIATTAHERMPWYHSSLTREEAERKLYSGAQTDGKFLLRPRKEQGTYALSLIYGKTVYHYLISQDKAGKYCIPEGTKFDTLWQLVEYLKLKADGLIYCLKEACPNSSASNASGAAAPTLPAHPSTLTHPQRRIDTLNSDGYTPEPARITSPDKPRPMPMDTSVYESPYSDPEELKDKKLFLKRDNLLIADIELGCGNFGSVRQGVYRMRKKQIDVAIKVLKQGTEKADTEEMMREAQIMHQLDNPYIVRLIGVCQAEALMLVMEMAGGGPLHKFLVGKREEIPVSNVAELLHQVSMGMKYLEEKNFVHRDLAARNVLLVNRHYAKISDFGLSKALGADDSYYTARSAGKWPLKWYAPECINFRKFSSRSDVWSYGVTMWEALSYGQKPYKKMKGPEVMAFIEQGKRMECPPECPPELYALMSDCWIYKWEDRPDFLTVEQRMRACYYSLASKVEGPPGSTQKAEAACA
Outline: as §5

EGFR = molecular target: T15, EGFR (Homo sapiens, UniProt P00533); experiment: Kinase inhibition assay (33P transfer), EGFR; details: Table 2, kinase inhibition class; read-out: EGFR-1
T15 construct: Kinases are expressed as either kinase domains or full length constructs; made in house
T15 sequence (P00533 25-1210, species assumed): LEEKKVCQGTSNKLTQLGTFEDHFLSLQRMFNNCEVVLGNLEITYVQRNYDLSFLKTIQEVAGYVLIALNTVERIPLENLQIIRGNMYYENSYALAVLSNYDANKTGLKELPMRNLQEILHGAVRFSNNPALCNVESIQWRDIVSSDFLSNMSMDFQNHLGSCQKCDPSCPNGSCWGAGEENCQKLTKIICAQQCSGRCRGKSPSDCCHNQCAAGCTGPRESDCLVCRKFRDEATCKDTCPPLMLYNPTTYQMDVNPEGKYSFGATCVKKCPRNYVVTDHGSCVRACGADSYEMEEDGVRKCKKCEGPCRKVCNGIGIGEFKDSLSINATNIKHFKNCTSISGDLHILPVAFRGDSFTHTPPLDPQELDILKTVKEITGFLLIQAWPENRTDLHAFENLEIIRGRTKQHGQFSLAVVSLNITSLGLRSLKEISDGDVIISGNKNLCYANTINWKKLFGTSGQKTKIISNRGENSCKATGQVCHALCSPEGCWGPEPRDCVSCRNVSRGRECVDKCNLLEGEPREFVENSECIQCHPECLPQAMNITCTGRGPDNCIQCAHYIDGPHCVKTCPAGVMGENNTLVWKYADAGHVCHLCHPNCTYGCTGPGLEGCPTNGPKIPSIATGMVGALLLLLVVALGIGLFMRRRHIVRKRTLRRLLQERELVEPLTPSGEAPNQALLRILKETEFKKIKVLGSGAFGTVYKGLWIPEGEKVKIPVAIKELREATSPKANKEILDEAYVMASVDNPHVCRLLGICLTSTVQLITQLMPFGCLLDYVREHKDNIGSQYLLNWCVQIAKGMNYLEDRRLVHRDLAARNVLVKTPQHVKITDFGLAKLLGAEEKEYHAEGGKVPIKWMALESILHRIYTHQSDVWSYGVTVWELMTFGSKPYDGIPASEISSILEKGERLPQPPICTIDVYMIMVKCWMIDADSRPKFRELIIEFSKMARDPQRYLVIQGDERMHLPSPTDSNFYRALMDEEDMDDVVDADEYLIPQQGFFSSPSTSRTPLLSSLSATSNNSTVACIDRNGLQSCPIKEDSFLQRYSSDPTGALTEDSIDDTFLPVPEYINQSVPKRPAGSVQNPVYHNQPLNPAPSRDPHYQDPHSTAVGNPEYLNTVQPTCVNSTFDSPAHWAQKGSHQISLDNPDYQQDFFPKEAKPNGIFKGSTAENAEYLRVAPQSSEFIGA
Outline: as §4

Lck = molecular target: T16, Lck (Homo sapiens, UniProt P06239); experiment: Kinase inhibition assay (33P transfer), Lck; details: Table 3; read-out: Lck-1
T16 construct: Kinases are expressed as either kinase domains or full length constructs; made in house
T16 sequence (P06239 whole entry, species assumed, the tested form may be a part): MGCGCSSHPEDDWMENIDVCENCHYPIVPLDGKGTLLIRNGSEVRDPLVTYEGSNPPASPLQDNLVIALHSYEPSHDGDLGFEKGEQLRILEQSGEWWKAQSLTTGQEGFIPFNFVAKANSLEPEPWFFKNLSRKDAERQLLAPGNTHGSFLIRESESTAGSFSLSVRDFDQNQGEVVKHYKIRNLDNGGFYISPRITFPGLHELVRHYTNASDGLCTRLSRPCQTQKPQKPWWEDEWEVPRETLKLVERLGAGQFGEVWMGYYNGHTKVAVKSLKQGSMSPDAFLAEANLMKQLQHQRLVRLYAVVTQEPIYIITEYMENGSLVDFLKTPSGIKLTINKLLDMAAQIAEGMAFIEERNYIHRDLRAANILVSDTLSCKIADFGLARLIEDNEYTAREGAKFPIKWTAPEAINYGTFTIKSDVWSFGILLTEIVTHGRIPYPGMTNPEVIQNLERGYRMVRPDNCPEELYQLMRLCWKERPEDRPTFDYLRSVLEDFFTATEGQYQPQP
Outline: as §5

| IC50 (PDGFRB) [µM] | IC50 (Src) [µM] | IC50 (Tek) [µM] | IC50 (AKT) [µM] | IC50 (ErbB4) [µM] | IC50 (c-Met) [µM] | IC50 (Hck-1) [µM] | IC50 (Fyn) [µM] | IC50 (Itk) [µM] | IC50 (Kdr) [µM] | IC50 (Lyn) [µM] | IC50 (FGFR1) [µM] | IC50 (Flt-1) [µM] | IC50 (Zap-70) [µM] | IC50 (EGFR) [µM] | IC50 (Lck) [µM] | Compound |
| --- | --- | --- | --- | --- | --- | --- | --- | --- | --- | --- | --- | --- | --- | --- | --- | --- |
| < 0.949 | 0.949 to 5.69 | > 10.7 | > 10.7 | > 10.7 | > 10.7 | > 10.7 | < 0.949 | > 10.7 | < 0.949 | 0.949 to 5.69 | < 0.949 | < 0.949 | > 10.7 | > 10.7 | > 10.7 | COc1cc(Nc2ncnc(-n3cc(CCO)c4ccccc43)n2)cc(OC)c1OC [Compound 463] |
| < 0.919 | 0.919 to 5.51 | > 10.3 | > 10.3 | > 10.3 | > 10.3 | > 10.3 | 0.919 to 5.51 | > 10.3 | < 0.919 | < 0.919 | < 0.919 | 0.919 to 5.51 | > 10.3 | > 10.3 | < 0.919 | COc1cc(Nc2ncnc(-n3c(NC(C)C)nc4ccccc43)n2)cc(OC)c1OC [Compound 403] |
| 0.785 to 4.71 | > 8.83 | > 8.83 | > 8.83 | > 8.83 | > 8.83 | > 8.83 | 0.785 to 4.71 | > 8.83 | 0.785 to 4.71 | 0.785 to 4.71 | < 0.785 | 4.71 to 6.87 | > 8.83 | > 8.83 | 0.785 to 4.71 | COc1cc(Nc2ncnc(-n3c(Nc4ccc5cn[nH]c5c4)nc4ccccc43)n2)cc(OC)c1OC [Compound 406] |
| 1.02 to 6.15 | 6.15 to 8.97 | > 11.5 | > 11.5 | 1.02 to 6.15 | 1.02 to 6.15 | > 11.5 | 6.15 to 8.97 | 1.02 to 6.15 | < 1.02 | 1.02 to 6.15 | 1.02 to 6.15 | 1.02 to 6.15 | > 11.5 | 1.02 to 6.15 | > 11.5 | CC(=O)NCc1ccc(Nc2ncnc(Nc3cc(-c4ccco4)n[nH]3)n2)cc1 [Compound 443] |
| 1.14 to 6.87 | 1.14 to 6.87 | 1.14 to 6.87 | 1.14 to 6.87 | 1.14 to 6.87 | 1.14 to 6.87 | > 12.9 | 1.14 to 6.87 | 1.14 to 6.87 | < 1.14 | 1.14 to 6.87 | < 1.14 | 1.14 to 6.87 | > 12.9 | 1.14 to 6.87 | 1.14 to 6.87 | OCc1ccc(Nc2ncnc(Nc3cc(-c4ccco4)n[nH]3)n2)cc1 [Compound 430] |
| < 0.801 | > 9.01 | > 9.01 | > 9.01 | > 9.01 | > 9.01 | > 9.01 | > 9.01 | > 9.01 | < 0.801 | > 9.01 | < 0.801 | < 0.801 | > 9.01 | > 9.01 | < 0.801 | COc1ccc(Nc2nc3ccccc3n2-c2ncnc(Nc3cc(OC)c(OC)c(OC)c3)n2)cc1 [Compound 397] |
| > 8.5 | > 8.5 | > 8.5 | > 8.5 | > 8.5 | > 8.5 | > 8.5 | > 8.5 | > 8.5 | < 0.755 | > 8.5 | > 8.5 | 0.755 to 4.53 | > 8.5 | > 8.5 | > 8.5 | COc1ccc(Nc2nc3ccccc3n2-c2ncnc(Nc3cc(OC)c(OC)c(OC)c3)n2)cc1OC [Compound 400] |
| < 0.826 | 4.95 to 7.22 | > 9.29 | > 9.29 | > 9.29 | > 9.29 | > 9.29 | 7.22 to 9.29 | > 9.29 | < 0.826 | 0.826 to 4.95 | < 0.826 | 0.826 to 4.95 | > 9.29 | > 9.29 | 0.826 to 4.95 | COc1cc(Nc2ncnc(-n3c(NCc4cccnc4)nc4ccccc43)n2)cc(OC)c1OC [Compound 416] |
| < 0.863 | 0.863 to 5.18 | > 9.71 | > 9.71 | > 9.71 | < 0.863 | > 9.71 | > 9.71 | > 9.71 | < 0.863 | 0.863 to 5.18 | < 0.863 | 0.863 to 5.18 | > 9.71 | > 9.71 | 7.55 to 9.71 | CCOC(=O)Cc1cn(-c2ncnc(Nc3cc(OC)c(OC)c(OC)c3)n2)c2ccccc12 [Compound 411] |
| < 1.08 | 1.08 to 6.48 | 1.08 to 6.48 | 1.08 to 6.48 | 1.08 to 6.48 | 1.08 to 6.48 | 1.08 to 6.48 | 1.08 to 6.48 | 1.08 to 6.48 | < 1.08 | 1.08 to 6.48 | < 1.08 | < 1.08 | 6.48 to 9.45 | 1.08 to 6.48 | 1.08 to 6.48 | Nc1nc2ccccc2n1-c1ncnc(Nc2cccc(-c3cnco3)c2)n1 [Compound 439] |
